Assay [1] concerns Mesenchymal stem cell. The experiment in a line: Effect on cell morphology of rabbit mesenchymal stem cells incubated for 3 days by phalloidin immunofluorescence staining method. Format: functional. The conditions noted are these: Oryctolagus cuniculus.
Assay [2] in a line: (§1) Increase in RUNX2 mRNA expression in rabbit mesenchymal stem cells incubated for 14 days by qRT-PCR method relative to untreated control. Format: functional, Oryctolagus cuniculus, Mesenchymal stem cell. On the technique in general: Quantitative PCR measures a nucleic acid by following its amplification.
Assay [3] can be described thus: (§2) Increase in BMP2 mRNA expression in rabbit mesenchymal stem cells incubated for 7 days by qRT-PCR method relative to untreated control. Format: functional, Oryctolagus cuniculus, Mesenchymal stem cell.
Assay [4] can be described thus: Increase in SPARC mRNA expression in rabbit mesenchymal stem cells incubated for 14 days by qRT-PCR method relative to untreated control. The class given is functional, Oryctolagus cuniculus, Mesenchymal stem cell.
A short description of assay [5]: Reduction in cell proliferation of rabbit mesenchymal stem cells incubated for 5 days by MTT assay. The class given is functional. The conditions noted are these: Oryctolagus cuniculus. A general note: Tetrazolium assays rely on reduction of a dye to a coloured formazan, in cell work by metabolically active cells.
In assay [6] the test system is Mesenchymal stem cell. The experiment in a line: Increase in SPARC mRNA expression in rabbit mesenchymal stem cells incubated for 7 days by qRT-PCR method relative to untreated control. The class given is functional. To be noted: Oryctolagus cuniculus.
The nature of assay [7]: (§3) Increase in BMP2 mRNA expression in rabbit mesenchymal stem cells incubated for 14 days by qRT-PCR method relative to untreated control. The class given is functional, Oryctolagus cuniculus, Mesenchymal stem cell.
The nature of assay [8]: Reduction in cell proliferation of rabbit mesenchymal stem cells incubated for 7 days by MTT assay. To be noted: Oryctolagus cuniculus. Format: functional.
In assay [9] the test system is Mesenchymal stem cell. The experiment in a line: Induction of osteogenesis of rabbit mesenchymal stem cells by alkaline phosphatase assay. The class given is functional. The conditions noted are these: Oryctolagus cuniculus.
Assay [10] can be described thus: (§4) Increase in RUNX2 mRNA expression in rabbit mesenchymal stem cells incubated for 7 days by qRT-PCR method relative to untreated control. Format: functional, Oryctolagus cuniculus, Mesenchymal stem cell.
Assay [11] has as its system Mesenchymal stem cell. The experiment in a line: Effect on cell morphology of rabbit mesenchymal stem cells incubated for 7 days by H and E staining method. Format: functional. The conditions noted are these: Oryctolagus cuniculus.
For assay [12], the system named is Mesenchymal stem cell. The experiment in a line: Effect on cell proliferation of rabbit mesenchymal stem cells incubated for 3 days by MTT assay. Format: functional. To be noted: Oryctolagus cuniculus.
Assay [13] can be described thus: Reduction in cell proliferation of rabbit mesenchymal stem cells incubated for 14 days by MTT assay. Format: functional. To be noted: Oryctolagus cuniculus.
Assay [14] concerns Mesenchymal stem cell. The experiment in a line: Effect on cell proliferation of rabbit mesenchymal stem cells incubated for 7 days by MTT assay. Format: functional. The conditions noted are these: Oryctolagus cuniculus.
Assay [15] concerns Mesenchymal stem cell. The experiment in a line: Increase in cell proliferation of rabbit mesenchymal stem cells incubated for 14 days by MTT assay. Format: functional. To be noted: Oryctolagus cuniculus.
Assay [16] deals with Mesenchymal stem cell. The description is as §1. The conditions noted are these: Oryctolagus cuniculus. Format: functional.
Assay [17] relates to Mesenchymal stem cell. The description is as §2. The class given is functional. To be noted: Oryctolagus cuniculus.
Assay [18] concerns Mesenchymal stem cell. Described as §3. The class given is functional. To be noted: Oryctolagus cuniculus.
Assay [19] deals with Mesenchymal stem cell. The description is as §4. Format: functional. The conditions noted are these: Oryctolagus cuniculus.

Active and inactive are the calls of the source. No cut-off for these calls is given here. Peptide text beside a SMILES is read from it.

`N[C@@H](CS)C(=O)N[C@@H](Cc1ccc(O)cc1)C(=O)NCC(=O)N[C@@H](Cc1ccccc1)C(=O)NCC(=O)NCC(=O)O` (H-CYGFGG-OH): the result in the assay on Mesenchymal stem cell [1], with Mesenchymal stem cell [6], in the assay on Mesenchymal stem cell [11] and in the assay on Mesenchymal stem cell [12] was inactive. The “fold change (FC)” value stood at 1.7 in [2]; 49 in assay [3]; 1.6 in [4]; 60 in assay [7]; 2.6 in assay [10]. Also, the result (in assay [5]; in [8]; in the assay with Mesenchymal stem cell [9]; in [13]) was Active.
On to `CC(C)C[C@H](NC(=O)[C@@H](NC(=O)[C@H](CCCNC(=N)N)NC(=O)CNC(=O)[C@H](CCC(N)=O)NC(=O)[C@H](CCCNC(=N)N)NC(=O)[C@H](CCCCN)NC(=O)[C@H](CC(C)C)NC(=O)[C@H](C)NC(=O)[C@@H](N)CS)[C@@H](C)O)C(=O)O` (H-CALKRQGRTL-OH), for which the outcome in the assay with Mesenchymal stem cell [14] and in the assay with Mesenchymal stem cell [9] was inactive.
On to `N[C@@H](Cc1ccc(O)cc1)C(=O)NCC(=O)N[C@@H](Cc1ccccc1)C(=O)NCC(=O)NCC(=O)O` (H-YGFGG-OH), for which the outcome in the assay on Mesenchymal stem cell [1], in the assay on Mesenchymal stem cell [16], with Mesenchymal stem cell [17], in the assay on Mesenchymal stem cell [6], with Mesenchymal stem cell [18] and in the assay on Mesenchymal stem cell [14] was inactive. Also, the outcome with Mesenchymal stem cell [9], in the assay on Mesenchymal stem cell [19], in the assay with Mesenchymal stem cell [11] and in the assay with Mesenchymal stem cell [12] was inactive. Further, in the assay with Mesenchymal stem cell [15], the outcome was Active.
On to `N[C@@H](Cc1ccc(O)cc1)C(=O)NCC(=O)N[C@@H](Cc1ccccc1)C(=O)NCC(=O)NCC(=O)N[C@@H](CS)C(=O)O` (H-YGFGGC-OH), for which the result with Mesenchymal stem cell [14] and in the assay with Mesenchymal stem cell [9] was inactive.
In the case of `CC(C)C[C@H](NC(=O)[C@H](C)N)C(=O)N[C@@H](CCCCN)C(=O)N[C@@H](CCCNC(=N)N)C(=O)N[C@@H](CCC(N)=O)C(=O)NCC(=O)N[C@@H](CCCNC(=N)N)C(=O)N[C@H](C(=O)N[C@@H](CC(C)C)C(=O)N[C@@H](CS)C(=O)O)[C@@H](C)O` (H-ALKRQGRTLC-OH), the outcome with Mesenchymal stem cell [14] and in the assay on Mesenchymal stem cell [9] was inactive.
In the case of `CC(C)C[C@H](NC(=O)[C@@H](NC(=O)[C@H](CCCNC(=N)N)NC(=O)CNC(=O)[C@H](CCC(N)=O)NC(=O)[C@H](CCCNC(=N)N)NC(=O)[C@H](CCCCN)NC(=O)[C@H](CC(C)C)NC(=O)[C@H](C)N)[C@@H](C)O)C(=O)O` (H-ALKRQGRTL-OH), the outcome in the assay with Mesenchymal stem cell [14] and with Mesenchymal stem cell [9] was inactive.

The values are drawn from ChEMBL document CHEMBL3585267, “Bioactivity of surface tethered Osteogenic Growth Peptide motifs” (2014).
